These results are taken from publication PMC9960827, “Cloning and Characterization of Trypanosoma congolense and T. vivax Nucleoside Transporters Reveal the Potential of P1-Type Carriers for the Discovery of Broad-Spectrum Nucleoside-Based Therapeutics against Animal African Trypanosomiasis” (International Journal of Molecular Sciences, 2023).

Data set [1] deals with T. evansi. Kind of data set: Alamar Blue (resazurin) assay, T. evansi. It counts as cell-based, Trypanosoma evansi. As to conditions: resazurin; read-out: T. evansi EC50. As for the experimental part:
(§1) EC50 values were determined by plotting to an equation for a sigmoid curve with variable slope (GraphPad Prism 8). All values were the average of at least three independent determinations on different days.
Background: The colour change of resazurin is a common sign of viable cells or microbes.

Data set [2] concerns T. equiperdum. In words: Alamar Blue (resazurin) assay, T. equiperdum. The class given is cell-based, Trypanosoma equiperdum. As to conditions: resazurin; read-out: T. equiperdum EC50. Here is the method: as §1
For data set [3], the system named is human embryonic kidney (HEK) cells. In words: Resazurin toxicity assay on human embryonic kidney cells. The class given is cell-based. Particulars: for EC50: resazurin, 96 well plates, read-out: HEK EC50; for SI T. congolense: selectivity index = EC50 (HEK cells)/EC50 (T. congolense); for SI T. equiperdum: selectivity index = EC50 (HEK cells)/EC50 (T. equiperdum); for SI T. evansi: selectivity index = EC50 (HEK cells)/EC50 (T. evansi). Here is the method: as §1

The test system of data set [4] is T. vivax. Details: method as in Mabille et al. [69]. Particulars: added for comparison only; ref Mabille et al. [69]; cited from earlier work.
In data set [5] the test system is T.b.b. B48. In words: Alamar Blue (resazurin) assay, T. b. brucei B48. It counts as cell-based, Trypanosoma brucei brucei. Particulars: multidrug-resistant strain, resazurin; read-out: T.b.b. B48 EC50. Here is the method: as §1
Data set [6] deals with T. congolense 6C3. In words: microbe, parasite or virus in culture. It counts as cell-based, Trypanosoma congolense. As to conditions: for EC50: diminazene resistant strain, resazurin, read-out: T. congolense 6C3 EC50; for T. congolense 6C3 RF: resistance factor = EC50 (test strain)/EC50(control strain). As for the experimental part: as §1
Data set [7] deals with T. congolense IL3000. In words: Alamar Blue (resazurin) assay, T. congolense IL3000. The class given is cell-based, Trypanosoma congolense. As to conditions: BSF, resazurin; read-out: T. congolense IL3000 EC50. As for the experimental part: as §1
For data set [8], the system named is L. mexicana Cas9. Kind of data set: Resazurin drug sensitivity assay, LmexCas9. As to conditions: resazurin, promastigotes; read-out: LmexCas9 EC50. The class given is cell-based, Leishmania mexicana. Here is the method: as §1
Data set [9] relates to L. mexicana SUPKO. Kind of data set: microbe, parasite or virus in culture. It counts as cell-based, Leishmania mexicana. Particulars: for SUPKO RF (Cas9): Resistance Factor = EC50(SUPKO)/EC50(Cas9); for EC50: resazurin, promastigotes, read-out: SUPKO EC50. As for the experimental part:
as §1

Data set [10] deals with L. mexicana SUPKO+TvxNT3. In words: microbe, parasite or virus in culture. The class given is cell-based, Leishmania mexicana. As to conditions: for EC50: resazurin, promastigotes, read-out: SUPKO+TvxNT3 EC50. As for the experimental part: as §1
Data set [11] deals with L. mexicana SUPKO+TcoAT1. Kind of data set: microbe, parasite or virus in culture. The class given is cell-based, Leishmania mexicana. As to conditions: for SUPKO+TcoAT1 RF (SUPKO): Resistance Factor relative to SUPKO; for EC50: resazurin, promastigotes, read-out: SUPKO+TcoAT1 EC50. As for the experimental part:
as §1

Data set [12] deals with T. b. brucei P1 (TbP1/NT2). As to conditions: cited from earlier work; for Ki: T. b. brucei bloodstream forms, read-out: Tbb P1 Ki.
Data set [13] addresses TvxNT3 (Trypanosoma vivax, UniProt F9WV62). Kind of data set: cell-based. The class given is cell-based. Particulars: for ΔG0: Gibbs free energy of interaction, from Km or Ki; for δ(ΔG0): difference in ΔG0 relative to the parent purine (adenosine or inosine). An excerpt:
(§2) The information for the T. congolense adenosine transporter (TcoAT1) and four putative T. vivax nucleoside transporters was obtained in the TritrypDB (tritrypdb.org/tritrypdb) genome database. Primers were designed to flank each gene upstream of the 5′ end (forward) and downstream of the 3′ end (reverse) as described (primer sequences in Supplementary Table S2). Following amplification from the genomic DNA of T. congolense or T. vivax, DNA for each extracted gene was ligated into the pNUS-HcN expression vector doubly digested with NdeI using the NEBuilder kit according to the manufacturer’s instructions (New England Biolabs). Construct was transformed into competent E. coli cells, and ligation was confirmed by restriction enzyme digestion of isolated plasmid DNA followed by Sanger sequencing (Source BioScience, Nottingham, UK). Confirmed plasmids were then transfected into L. mexicana cell line in which both NT1 and NT2 were doubly knocked out (SUPKO) and derived from L. mexicana Cas9 [64] as described. Clones grown in medium containing 50 μg/mL neomycin (G418) were collected for further confirmation by PCR with genomic DNA using a forward primer of the transporter gene and a reverse primer of the plasmid.
(§3) Uptake assays using radiolabeled trypanocides and/or nucleosides were carried out as described previously. Briefly, parasite cultures were harvested, washed twice in assay buffer (33 mM HEPES, 98 mM NaCl, 4.6 mM KCl, 0.5 mM CaCl2, 0.07 mM MgSO4, 5.8 mM NaH3PO4, 0.03 mM MgCl2, 23 mM NaHCO3, 14 mM D-glucose, pH 7.3), then resuspended and adjusted to a density of 1 × 10^8 cells/mL in assay buffer. The radiolabeled permeant in the presence or absence of different concentrations of potential inhibitors reconstituted in 100 μL assay buffer was deposited on top of 250 μL oil mix in microcentrifuge tubes; 1 × 10^7 parasites in 100 μL assay buffer were added to the tube and incubated for a pre-determined interval. The reaction was stopped by the addition of 1 mL of a high concentration of ice-cold unlabeled substrate in assay buffer (‘stop solution’) and centrifugation, or by immediate centrifugation at […] as appropriate. The microcentrifuge tubes were flash-frozen, and the bottom of each tube containing the cell pellet was cut off and transferred to a scintillation vial. Cell pellets were lysed in 2% SDS, after which scintillation fluid (Scintlogic U, Lablogic) was added, followed by overnight incubation in the dark. Scintillation was measured in a 300SL (Hidex) scintillation counter (Hidex). All the assays were conducted in triplicate and analysis was carried out using Microsoft Excel and GraphPad Prism. All kinetic parameters were obtained on at least 3 separate occasions.
(§4) The dose-dependent uptake assay allowed for the affinity of nucleoside analogs to different nucleoside transporters to be determined by measuring the extent to which the analogs compete with and inhibit the uptake of radiolabel adenosine. This allowed for the determination of biochemical parameters such as Km and Vmax through the application of the Michaelis–Menten equation V0 = Vmax([substrate]/([substrate] + Km)). The 50% Inhibitory Concentration (IC50) of the purines and pyrimidines and their analogs was determined from non-linear regression to sigmoid curves with variable slope (Prism 8), and the IC50 of the inhibitor and the Km of the labeled permeant were then used to calculate the inhibition constant (Ki) of the analogs through the Cheng–Prusoff equation: Ki = IC50/(1 + (L/Km)), where L denotes the radiolabel concentration. The calculated Ki was in turn used to determine the Gibbs free energy (ΔG^0) of the inhibitor–transporter interaction using the equation: ΔG^0 = -RTln(Ki), where R represents the gas constant and T symbolizes the absolute temperature in Kelvin [104].

Data set [14] concerns the target T. congolense adenosine transporter. Kind of data set: [3H]-adenosine uptake and its inhibition in T. congolense IL3000 bloodstream forms. It counts as cell-based, Trypanosoma congolense. Particulars: for Ki: 0.05 µM [3H]-adenosine, 30 s, IC50 converted to Ki, read-out: Ki on the transport of [3H]-adenosine; for ΔG0, Gibbs free energy of interaction: calculated from Km or Ki; for Ki values fold higher than those for the purines: inhibition of adenosine uptake. Here is the method: as §3, §4

In data set [15] the target is TcoAT1. The class given is cell-based, Trypanosoma congolense. Particulars: for Ki: 0.05 µM [3H]-adenosine, 10 s, IC50 converted to Ki, read-out: Ki on the transport of [3H]-adenosine; for ΔG0: Gibbs free energy of binding, from Km or Ki; for δ(ΔG0): loss of Gibbs free energy of binding relative to the parent nucleoside.
From the text: as §2, §3, §4

The structures appear in SMILES notation. Where two headings read alike, the source gives them in different places.

TvxNT3, sequence (F9WV62 entry or part of it): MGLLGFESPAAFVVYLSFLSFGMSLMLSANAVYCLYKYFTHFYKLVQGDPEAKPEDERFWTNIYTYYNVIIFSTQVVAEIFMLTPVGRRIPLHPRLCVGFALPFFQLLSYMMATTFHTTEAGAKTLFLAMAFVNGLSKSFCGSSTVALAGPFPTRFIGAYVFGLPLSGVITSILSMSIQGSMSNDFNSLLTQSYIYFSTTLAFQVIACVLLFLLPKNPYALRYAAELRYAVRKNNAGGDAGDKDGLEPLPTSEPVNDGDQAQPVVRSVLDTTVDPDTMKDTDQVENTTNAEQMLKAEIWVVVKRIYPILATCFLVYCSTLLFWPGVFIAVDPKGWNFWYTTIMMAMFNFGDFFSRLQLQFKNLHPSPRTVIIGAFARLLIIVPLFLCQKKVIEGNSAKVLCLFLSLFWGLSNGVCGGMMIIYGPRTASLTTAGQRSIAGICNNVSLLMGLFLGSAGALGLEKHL

Regarding `Nc1ncnc2c1c(Br)cn2[C@H]1C[C@H](O)[C@@H](CO)O1` [FH10679], the concentration for a half-maximal effect (EC50) was 1.74 ± 0.53 µM in data set [1]; 0.067 ± 0.013 µM in data set [2]; greater than 200 µM in [3]; 4.3 ± 0.9 µM in [4]; 1.04 ± 0.19 µM in [5]; 0.31 ± 0.07 µM in data set [6]. Moreover, the EC50 in data set [7] came out at 0.51 ± 0.09 µM. The “SI T. congolense” value in [3] was greater than 390. In addition, the “SI T. equiperdum” value in data set [3] is greater than 3000. The “SI T. evansi” value in [3] is greater than 115. The “T. congolense 6C3 RF” value in data set [6] worked out at 0.60.

For `Nc1ncnc2c1c(Cl)cn2[C@@H]1O[C@H](CO)[C@@H](O)[C@H]1O` [FH3169], the EC50 in data set [1] was 0.62 ± 0.06 µM; in [2], 0.12 ± 0.018 µM; in data set [3], 4.55 ± 0.19 µM; in [8], 0.23 ± 0.005 µM; in data set [4], 0.053 ± 0.007 µM; in data set [5], 1.84 ± 0.33 µM. Moreover, the EC50 in data set [9] was found to be 15.4 ± 2.7 µM; in [10], 15.9 ± 2.5 µM; in [11], 9.41 ± 0.56 µM; in data set [6], 0.75 ± 0.14 µM; in data set [7] it was 0.86 ± 0.12 µM. In data set [3], the “SI T. congolense” value is recorded as 5.3. Besides, the “SI T. equiperdum” value in data set [3] amounted to 37. In addition, the “SI T. evansi” value in data set [3] is recorded as 7.4. The “SUPKO RF (Cas9)” value in data set [9] was found to be 67.7. Also, the “SUPKO+TvxNT3 RF (SUPKO)” value in data set [10] (Resistance Factor relative to SUPKO) was 0.97. Moreover, the “SUPKO+TcoAT1 RF (SUPKO)” value in data set [11] worked out at 1.64. Also, the “T. congolense 6C3 RF” value in [6] worked out at 0.87.

Take `Nc1ncnc2c1c(Br)cn2[C@@H]1O[C@H](CO)[C@@H](O)[C@H]1O` [TH1003]: the EC50 in data set [1] was 0.48 ± 0.06 µM; in [2] it was 0.085 ± 0.026 µM; in data set [3], 2.37 ± 0.12 µM; in [8], 2.43 ± 0.14 µM; in data set [4], 0.74 ± 0.04 µM; in data set [5], 1.4 ± 0.09 µM. Moreover, the EC50 is greater than 100 µM in [9]; greater than 100 µM in [10]; 71.1 ± 5 µM in data set [11]; 0.52 ± 0.031 µM in data set [6]; 0.79 ± 0.14 µM in data set [7]. For the same molecule, the “SI T. congolense” value in data set [3] worked out at 3.0. Moreover, in data set [3], the “SI T. equiperdum” value is listed as 28. The “SI T. evansi” value in data set [3] came out at 4.9. For the same molecule, the “SUPKO RF (Cas9)” value in data set [9] was greater than 41.2. Besides, the “SUPKO+TcoAT1 RF (SUPKO)” value in [11] was greater than 1.4. For the same molecule, the “T. congolense 6C3 RF” value in data set [6] was determined as 0.66.

For `Nc1ncnc2c1ccn2[C@H]1C[C@H](O)[C@@H](CO)O1` [FH10677], the EC50 in data set [1] is greater than 100 µM; in data set [2] it was 17.4 ± 2.3 µM; in data set [3] it was greater than 200 µM; in data set [4], greater than 64 µM; in data set [5] it was 38 ± 2.3 µM; in [6] it was 10.9 ± 2.3 µM. Moreover, in data set [7], the EC50 is 43.3 ± 14.5 µM. The “SI T. congolense” value in [3] is greater than 4.6. Besides, the “SI T. equiperdum” value in data set [3] was greater than 12. The “T. congolense 6C3 RF” value in data set [6] is 0.25.

On to `O=c1ccn([C@@H]2O[C@H](CO)[C@@H](O)[C@H]2O)c(=O)[nH]1` [Uridine], for which, in data set [12], the Ki was 830 ± 86 µM and the “Tbb P1 ΔG0” value was -4.47 kcal/mol. Besides, in data set [13], the ΔG0 is -4.285 kcal/mol and the “δ(ΔG0)” value was -3.693 kcal/mol. Moreover, in data set [14], the Ki was 390 ± 9.1 µM; the “ΔG0, Gibbs free energy of interaction” value is -4.64 kcal/mol; the “Ki values fold higher than those for the purines” value is reported as greater than 90 fold. Besides, the Ki in data set [15] (listed as URD) stood at 147 µM. In data set [15], the Ki amounted to 1470 ± 172 µM, the ΔG0 was -3.87 kcal/mol and the “δ(ΔG0)” value stood at 4.835 kcal/mol.

In the case of `Cc1cn([C@H]2C[C@H](O)[C@@H](CO)O2)c(=O)[nH]c1=O` [Thymidine], in data set [12], the Ki was 44 ± 10 µM. For the same molecule, in data set [13], the ΔG0 is -4.391 kcal/mol and the “δ(ΔG0)” value is -3.587 kcal/mol. For the same molecule, in [14], the Ki is 94.6 ± 11.5 µM; the “ΔG0, Gibbs free energy of interaction” value was -5.5 kcal/mol; the “Ki values fold higher than those for the purines” value is reported as greater than 90 fold. In [15] (listed as TMD), the inhibition constant Ki worked out at 49.6 µM. In data set [15], the Ki is 434 ± 46.4 µM, the ΔG0 was -4.59 kcal/mol and the “δ(ΔG0)” value is 4.113 kcal/mol.

One may read the EC50 as the concentration that produces a half-maximal response. Usually Ki stands for a measure of affinity in units of concentration, obtained from inhibition or displacement.
